Experimental findings from ChEMBL document CHEMBL4507257, “Data for DCP probe ABT-100” (2021) are described below.

Data set [1] concerns the target Sigma non-opioid intracellular receptor 1 (Homo sapiens, UniProt Q99720). The data set is described as follows: GPCRScan assay: inhibition of Sigma 1. Set-up: radioligand conc. used [nm] 4.0 – 5.0, parental cells HEKT.
The target of data set [2] is Substance-K receptor (Homo sapiens) (UniProt P21452). The data set is described as follows: NK2 (h) Ligand binding assay.
Substance-K receptor (Homo sapiens), sequence (P21452 whole entry): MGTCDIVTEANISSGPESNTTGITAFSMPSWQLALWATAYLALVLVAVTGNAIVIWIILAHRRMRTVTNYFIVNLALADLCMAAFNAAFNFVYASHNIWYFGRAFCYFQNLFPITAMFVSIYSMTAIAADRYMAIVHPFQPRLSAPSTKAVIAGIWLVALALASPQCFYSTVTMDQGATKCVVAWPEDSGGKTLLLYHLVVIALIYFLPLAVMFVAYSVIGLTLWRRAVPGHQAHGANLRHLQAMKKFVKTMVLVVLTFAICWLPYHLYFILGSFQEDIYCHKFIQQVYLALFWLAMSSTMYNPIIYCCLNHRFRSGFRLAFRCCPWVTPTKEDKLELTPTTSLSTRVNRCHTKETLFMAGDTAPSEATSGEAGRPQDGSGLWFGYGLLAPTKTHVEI
In data set [3] the target is L-type calcium channel (verapamil site) (Homo sapiens, UniProt O60840+Q01668+Q13698+Q13936). The experiment in a line: Ca2+ channel (L verapamil site) Ligand binding assay. It counts as protein assay.
Data set [4] has as its target voltage-dependent potassium channel (Homo sapiens, UniProt O43525+O43526+O95259+P16389+P17658+P22001+P22459+P22460+P48547+P51787+P56696+Q03721+Q09470+Q12809+Q14003+Q14721+Q16322+Q6PIU1+Q8NCM2+Q8TAE7+Q8TDN1+Q8TDN2+Q92953+Q96KK3+Q96L42+Q96PR1+Q96RP8+Q9BQ31+Q9H252+Q9H3M0+Q9NR82+Q9NS40+Q9NSA2+Q9NZV8+Q9UIX4+Q9UJ96+Q9UK17+Q9ULD8+Q9ULS6+Q9UQ05). The data set is described as follows: K+ channel (Volt-dependent) Ligand binding assay. It counts as protein assay. As to conditions: compound concentration 10 uM; call rule not given here.

Data set [5] addresses D(1A) dopamine receptor (Homo sapiens) (UniProt P21728). The experiment in a line: D1 (h) Ligand binding assay. The note with it: Compound concentration 10.0 uM.
The target of data set [6] is T1, 5-hydroxytryptamine receptor 2C (Homo sapiens) (UniProt P28335).
T1 sequence (whole entry): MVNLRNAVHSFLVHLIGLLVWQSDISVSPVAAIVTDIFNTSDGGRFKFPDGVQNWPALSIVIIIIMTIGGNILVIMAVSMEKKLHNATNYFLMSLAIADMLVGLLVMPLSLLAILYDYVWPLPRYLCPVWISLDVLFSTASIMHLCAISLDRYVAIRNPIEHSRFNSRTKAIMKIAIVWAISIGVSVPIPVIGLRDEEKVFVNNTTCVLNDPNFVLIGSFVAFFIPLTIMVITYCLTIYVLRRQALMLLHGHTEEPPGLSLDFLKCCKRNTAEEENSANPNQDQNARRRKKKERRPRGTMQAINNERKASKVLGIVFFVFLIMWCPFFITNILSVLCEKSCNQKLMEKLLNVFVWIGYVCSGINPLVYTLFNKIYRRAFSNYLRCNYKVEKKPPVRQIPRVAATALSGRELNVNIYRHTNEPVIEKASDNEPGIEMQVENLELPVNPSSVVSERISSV
The data set is described as follows: 5-HT2C (h) Ligand binding assay. As to conditions: Compound concentration 10.0 uM.

The target of data set [7] is Homeodomain-interacting protein kinase 2 (Homo sapiens, UniProt Q9H2X6). The experiment in a line: Inhibition of HIPK2 at compound concentration of 10.0 uM using the ScanMax (DiscoverX).
Homeodomain-interacting protein kinase 2, sequence (Q9H2X6 whole entry): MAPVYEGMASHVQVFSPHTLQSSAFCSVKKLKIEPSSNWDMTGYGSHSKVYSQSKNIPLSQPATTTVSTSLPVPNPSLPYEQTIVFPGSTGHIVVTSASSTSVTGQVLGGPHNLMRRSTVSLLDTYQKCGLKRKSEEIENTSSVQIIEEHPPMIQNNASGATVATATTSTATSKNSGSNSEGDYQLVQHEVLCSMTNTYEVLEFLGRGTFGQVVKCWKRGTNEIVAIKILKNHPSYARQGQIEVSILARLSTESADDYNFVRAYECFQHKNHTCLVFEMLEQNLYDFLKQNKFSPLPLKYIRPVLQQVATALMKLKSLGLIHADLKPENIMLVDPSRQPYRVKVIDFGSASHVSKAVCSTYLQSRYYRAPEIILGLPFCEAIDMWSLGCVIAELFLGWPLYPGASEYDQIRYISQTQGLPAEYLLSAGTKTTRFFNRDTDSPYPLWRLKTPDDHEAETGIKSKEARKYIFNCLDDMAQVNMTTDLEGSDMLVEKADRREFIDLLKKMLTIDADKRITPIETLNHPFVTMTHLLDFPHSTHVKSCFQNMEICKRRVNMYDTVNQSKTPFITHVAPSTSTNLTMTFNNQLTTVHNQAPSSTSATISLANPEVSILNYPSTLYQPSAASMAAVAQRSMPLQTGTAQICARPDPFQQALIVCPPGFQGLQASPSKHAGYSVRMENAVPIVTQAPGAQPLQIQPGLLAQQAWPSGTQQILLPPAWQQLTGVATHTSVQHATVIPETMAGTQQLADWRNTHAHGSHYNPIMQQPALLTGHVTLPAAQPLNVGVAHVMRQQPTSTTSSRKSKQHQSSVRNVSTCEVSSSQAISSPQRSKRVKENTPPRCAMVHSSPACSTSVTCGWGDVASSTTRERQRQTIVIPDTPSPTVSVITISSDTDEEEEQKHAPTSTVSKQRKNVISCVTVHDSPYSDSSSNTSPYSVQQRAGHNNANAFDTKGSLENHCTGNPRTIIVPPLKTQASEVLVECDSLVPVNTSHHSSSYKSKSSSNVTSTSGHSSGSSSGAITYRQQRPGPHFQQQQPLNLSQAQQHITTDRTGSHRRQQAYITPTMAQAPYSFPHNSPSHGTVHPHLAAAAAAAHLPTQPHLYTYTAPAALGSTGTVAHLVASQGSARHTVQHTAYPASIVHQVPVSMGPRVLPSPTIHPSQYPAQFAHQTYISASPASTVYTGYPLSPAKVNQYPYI
Data set [8] has as its target Adrenergic receptor alpha-1 (Homo sapiens) (UniProt P35348+P25100+P35368). The experiment in a line: alpha1 (non-selective) Ligand binding assay. The note with it: Compound concentration 10.0 uM. It counts as protein assay.
Data set [9] has as its target Beta-1 adrenergic receptor (Homo sapiens) (UniProt P08588). The data set is described as follows: beta1 (h) Ligand binding assay. As to conditions: Compound concentration 10.0 uM.
The target of data set [10] is D(1B) dopamine receptor (Homo sapiens) (UniProt P21918). The experiment in a line: D5 (h) Ligand binding assay. As to conditions: Compound concentration 10.0 uM.
Data set [11] deals with Cannabinoid receptor 2 (Homo sapiens) (UniProt P34972). The data set is described as follows: CB2 (h) (peripheral) Ligand binding assay. The note with it: Compound concentration 10.0 uM.
Cannabinoid receptor 2 (Homo sapiens), sequence (P34972 whole entry): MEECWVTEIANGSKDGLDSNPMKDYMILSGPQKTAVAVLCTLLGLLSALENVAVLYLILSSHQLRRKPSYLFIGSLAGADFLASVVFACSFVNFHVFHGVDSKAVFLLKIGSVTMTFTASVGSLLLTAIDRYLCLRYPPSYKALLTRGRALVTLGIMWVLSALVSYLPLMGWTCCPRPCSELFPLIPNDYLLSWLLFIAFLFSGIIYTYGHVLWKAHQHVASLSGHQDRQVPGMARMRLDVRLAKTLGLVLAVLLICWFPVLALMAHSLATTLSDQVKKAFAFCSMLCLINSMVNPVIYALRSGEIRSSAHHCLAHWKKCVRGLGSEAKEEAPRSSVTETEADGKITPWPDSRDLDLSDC
The target in data set [12] is Delta-type opioid receptor (Homo sapiens) (UniProt P41143). The data set is described as follows: Delta (h) Ligand binding assay. The note with it: Compound concentration 10.0 uM.
Delta-type opioid receptor (Homo sapiens), sequence (P41143 whole entry): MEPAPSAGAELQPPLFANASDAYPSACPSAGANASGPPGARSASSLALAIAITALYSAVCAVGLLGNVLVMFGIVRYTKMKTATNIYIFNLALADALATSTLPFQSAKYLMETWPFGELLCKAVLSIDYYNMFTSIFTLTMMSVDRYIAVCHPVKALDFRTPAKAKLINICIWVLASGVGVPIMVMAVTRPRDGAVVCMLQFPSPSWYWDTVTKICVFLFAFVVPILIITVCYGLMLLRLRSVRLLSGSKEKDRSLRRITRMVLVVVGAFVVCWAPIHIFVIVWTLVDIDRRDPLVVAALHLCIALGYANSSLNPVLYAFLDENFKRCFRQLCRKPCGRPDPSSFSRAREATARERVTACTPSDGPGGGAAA
Data set [13] addresses Neuropeptide Y receptor type 1 (Homo sapiens) (UniProt P25929). The data set is described as follows: Y1 (h) Ligand binding assay. As to conditions: Compound concentration 10.0 uM.
The target in data set [14] is T2, Muscarinic acetylcholine receptor M1 (Homo sapiens) (UniProt P11229).
T2 sequence (whole entry): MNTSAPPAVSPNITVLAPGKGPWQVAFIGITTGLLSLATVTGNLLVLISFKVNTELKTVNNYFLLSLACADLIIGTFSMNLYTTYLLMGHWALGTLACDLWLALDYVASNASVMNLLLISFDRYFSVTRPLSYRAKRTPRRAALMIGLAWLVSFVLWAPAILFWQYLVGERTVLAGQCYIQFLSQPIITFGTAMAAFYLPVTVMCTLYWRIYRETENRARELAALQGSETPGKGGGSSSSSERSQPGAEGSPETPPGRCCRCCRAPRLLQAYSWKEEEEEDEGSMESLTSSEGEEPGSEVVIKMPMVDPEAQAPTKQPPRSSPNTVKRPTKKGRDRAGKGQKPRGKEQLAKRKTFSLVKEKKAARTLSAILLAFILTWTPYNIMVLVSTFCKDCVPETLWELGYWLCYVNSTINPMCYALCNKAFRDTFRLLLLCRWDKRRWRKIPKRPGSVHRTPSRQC
The experiment in a line: M1 (h) Ligand binding assay. The note with it: Compound concentration 10.0 uM.

For data set [15], the target named is Tumor necrosis factor (Homo sapiens) (UniProt P01375). The data set is described as follows: TNF-alpha (h) Ligand binding assay. As to conditions: Compound concentration 10.0 uM.
Tumor necrosis factor (Homo sapiens), sequence (P01375 whole entry): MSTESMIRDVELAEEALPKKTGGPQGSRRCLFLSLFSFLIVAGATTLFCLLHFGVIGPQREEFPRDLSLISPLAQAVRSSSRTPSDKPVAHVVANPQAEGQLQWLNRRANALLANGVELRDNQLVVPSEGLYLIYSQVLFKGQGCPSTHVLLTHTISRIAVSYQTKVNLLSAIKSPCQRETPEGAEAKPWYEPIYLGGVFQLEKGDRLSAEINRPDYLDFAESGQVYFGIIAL
In data set [16] the target is P2X receptor (Rattus norvegicus) (UniProt P51579+P49653+P51578+Q64663+P47824+P51577+P49654). The data set is described as follows: P2X Ligand binding assay. It counts as protein assay. The note with it: Compound concentration 10.0 uM.
For data set [17], the target named is Neurotensin receptor type 1 (Homo sapiens) (UniProt P30989). The data set is described as follows: NT1 (h) Ligand binding assay. The note with it: Compound concentration 10.0 uM.
Neurotensin receptor type 1 (Homo sapiens), sequence (P30989 whole entry): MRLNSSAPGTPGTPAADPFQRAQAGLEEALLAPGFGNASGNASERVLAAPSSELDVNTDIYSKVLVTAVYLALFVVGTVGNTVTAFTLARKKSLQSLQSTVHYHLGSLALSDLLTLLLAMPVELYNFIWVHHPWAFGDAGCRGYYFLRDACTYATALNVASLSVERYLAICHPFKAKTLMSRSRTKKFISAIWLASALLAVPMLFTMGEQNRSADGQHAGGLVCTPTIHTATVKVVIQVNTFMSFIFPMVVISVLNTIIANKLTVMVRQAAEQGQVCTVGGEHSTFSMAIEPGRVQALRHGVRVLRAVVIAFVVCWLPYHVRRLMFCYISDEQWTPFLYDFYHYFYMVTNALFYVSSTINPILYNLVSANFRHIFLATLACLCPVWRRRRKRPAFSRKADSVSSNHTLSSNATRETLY
The target of data set [18] is Calcium/calmodulin-dependent protein kinase type 1B (Homo sapiens, UniProt Q6P2M8). The experiment in a line: Inhibition of PNCK at compound concentration of 10.0 uM using the ScanMax (DiscoverX).
Calcium/calmodulin-dependent protein kinase type 1B, sequence (Q6P2M8 whole entry): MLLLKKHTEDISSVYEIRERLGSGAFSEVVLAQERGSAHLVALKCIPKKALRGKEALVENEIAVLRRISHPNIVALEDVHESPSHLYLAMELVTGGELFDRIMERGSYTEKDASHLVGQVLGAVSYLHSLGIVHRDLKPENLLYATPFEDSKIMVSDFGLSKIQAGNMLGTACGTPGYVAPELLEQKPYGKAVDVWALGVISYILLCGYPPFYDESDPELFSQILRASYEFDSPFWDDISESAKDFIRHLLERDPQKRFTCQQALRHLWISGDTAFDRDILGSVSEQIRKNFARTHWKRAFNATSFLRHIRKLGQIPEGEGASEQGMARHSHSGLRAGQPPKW
The target in data set [19] is T3, Muscarinic acetylcholine receptor M5 (Homo sapiens) (UniProt P08912).
T3 sequence (whole entry): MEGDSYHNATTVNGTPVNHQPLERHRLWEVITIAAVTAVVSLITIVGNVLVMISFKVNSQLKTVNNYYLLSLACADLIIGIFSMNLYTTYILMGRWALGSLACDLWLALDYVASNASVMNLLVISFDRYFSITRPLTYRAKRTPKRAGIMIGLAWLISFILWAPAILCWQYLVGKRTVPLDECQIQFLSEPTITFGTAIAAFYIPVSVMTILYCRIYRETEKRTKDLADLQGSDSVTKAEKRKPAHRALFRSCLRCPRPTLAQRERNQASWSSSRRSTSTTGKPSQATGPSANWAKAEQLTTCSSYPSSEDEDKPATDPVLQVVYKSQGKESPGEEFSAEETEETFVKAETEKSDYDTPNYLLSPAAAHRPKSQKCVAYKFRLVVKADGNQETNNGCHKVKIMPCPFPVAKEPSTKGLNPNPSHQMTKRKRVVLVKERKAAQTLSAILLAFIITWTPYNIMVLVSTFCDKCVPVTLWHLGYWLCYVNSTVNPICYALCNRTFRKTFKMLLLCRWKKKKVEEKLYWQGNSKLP
The data set is described as follows: M5 (h) Ligand binding assay. The note with it: Compound concentration 10.0 uM.

For data set [20], the target named is Adenosine receptor A3 (Homo sapiens) (UniProt P0DMS8). The data set is described as follows: A3 (h) Ligand binding assay. The note with it: Compound concentration 10.0 uM.
Adenosine receptor A3 (Homo sapiens), sequence (P0DMS8 whole entry): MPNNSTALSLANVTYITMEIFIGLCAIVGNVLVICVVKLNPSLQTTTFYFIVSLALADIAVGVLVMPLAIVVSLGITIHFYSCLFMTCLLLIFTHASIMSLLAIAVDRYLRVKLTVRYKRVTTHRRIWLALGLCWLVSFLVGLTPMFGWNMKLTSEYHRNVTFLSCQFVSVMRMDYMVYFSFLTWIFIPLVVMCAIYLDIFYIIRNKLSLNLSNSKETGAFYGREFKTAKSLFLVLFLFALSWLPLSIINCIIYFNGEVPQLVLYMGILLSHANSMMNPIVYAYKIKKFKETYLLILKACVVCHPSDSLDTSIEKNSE

A value given as a limit tells only on which side of the number the result lay.

In general, Ki refers to the dissociation constant of the complex between target and ligand, obtained from inhibition or displacement. Broadly, the inhibition is the change of the read-out against control, counted positive when it falls. Broadly, the Kd is the concentration at which binding is half-saturated.

Sigma non-opioid intracellular receptor 1, sequence (Q99720 whole entry): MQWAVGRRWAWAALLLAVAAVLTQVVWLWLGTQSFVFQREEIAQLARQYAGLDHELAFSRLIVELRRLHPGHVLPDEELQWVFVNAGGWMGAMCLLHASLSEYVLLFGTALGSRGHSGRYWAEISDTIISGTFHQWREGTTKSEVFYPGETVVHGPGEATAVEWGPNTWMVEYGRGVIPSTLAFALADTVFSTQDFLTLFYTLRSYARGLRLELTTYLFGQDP
Beta-1 adrenergic receptor (Homo sapiens), sequence (P08588 whole entry, looked up): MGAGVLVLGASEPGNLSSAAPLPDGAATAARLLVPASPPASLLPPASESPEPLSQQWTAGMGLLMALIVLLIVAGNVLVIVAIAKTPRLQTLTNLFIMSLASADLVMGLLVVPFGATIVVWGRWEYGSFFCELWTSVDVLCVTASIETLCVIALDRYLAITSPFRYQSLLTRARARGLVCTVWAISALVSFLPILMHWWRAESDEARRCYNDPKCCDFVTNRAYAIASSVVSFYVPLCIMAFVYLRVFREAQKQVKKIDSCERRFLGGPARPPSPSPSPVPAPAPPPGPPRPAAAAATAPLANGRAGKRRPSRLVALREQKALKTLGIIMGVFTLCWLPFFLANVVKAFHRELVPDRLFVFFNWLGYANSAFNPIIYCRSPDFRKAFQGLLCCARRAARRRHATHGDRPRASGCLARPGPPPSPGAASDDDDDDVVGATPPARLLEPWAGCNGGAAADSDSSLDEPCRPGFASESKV
Neuropeptide Y receptor type 1 (Homo sapiens), sequence (P25929 whole entry): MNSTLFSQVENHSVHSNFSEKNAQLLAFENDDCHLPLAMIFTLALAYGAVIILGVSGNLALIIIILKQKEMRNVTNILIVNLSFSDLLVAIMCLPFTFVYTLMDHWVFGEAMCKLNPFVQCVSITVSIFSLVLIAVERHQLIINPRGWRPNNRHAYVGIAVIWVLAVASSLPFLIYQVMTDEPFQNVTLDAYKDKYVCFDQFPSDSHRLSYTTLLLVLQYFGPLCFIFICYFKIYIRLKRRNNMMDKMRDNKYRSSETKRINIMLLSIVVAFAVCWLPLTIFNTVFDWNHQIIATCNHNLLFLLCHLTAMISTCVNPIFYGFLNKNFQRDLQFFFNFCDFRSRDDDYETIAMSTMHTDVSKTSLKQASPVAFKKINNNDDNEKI

For the compound `Cn1cncc1[C@@](O)(COc1ccc(C#N)cc1-c1ccc(OC(F)(F)F)cc1)c1ccc(C#N)cc1` [A-108], the inhibition constant Ki in data set [1] was 0.0916 µM.

For the compound `Cn1cncc1[C@](O)(COc1ccc(C#N)cc1-c1ccc(OC(F)(F)F)cc1)c1ccc(C#N)cc1` [ABT-100], the inhibition in [2] (Compound concentration 3.0 uM) is 32%; in data set [2] (Compound concentration 10.0 uM), 81%; in data set [5], 31%; in [6] it was less than 10%; in data set [8], less than 10%; in [9], 22%. In addition, the inhibition in [10] was 54%; in data set [11] it was less than 10%; in [12], 14%; in data set [13] it was less than 10%; in data set [14], less than 10%; in [15], 24%. Further, the inhibition was less than 10% in data set [16], less than 10% in data set [17], 18% in data set [19] and less than 10% in data set [20]. For the same compound, the inhibition at 1 µM in data set [3] (compound concentration 1 uM) is given as 10% (not active). Moreover, in data set [3] (compound concentration 3 uM), the inhibition at 3 µM is given as 37% (not active). In addition, the results for the inhibition at 10 µM in data set [3] (compound concentration 10 uM) and in [4] were 60% and < 10% (not active), respectively. Further, the Kd in data set [7] and in data set [18] was > 10 µM (not active) each time.
